Test results taken from US20180057505A1, “BICYCLIC HETEROARYL COMPOUNDS USEFUL AS INHIBITORS OF THE PAR-2 SIGNALING PATHWAY” (VERTEX PHARMACEUTICALS INCORPORATED, priority 2015, published 2018).

Legend:
Format in all cases: cell-based
[1] = molecular target: T1, PAR2 (HT-29 cells) (Homo sapiens, UniProt P55085); assay: Ca FLIPR TETRA assay, ANTAGONIST mode, activator 3.1 U/mL trypsin; conditions: HT-29 cells, activator 3.1 U/mL trypsin
T1 construct: host or cells: HT-29
T1 sequence (P55085 26-397): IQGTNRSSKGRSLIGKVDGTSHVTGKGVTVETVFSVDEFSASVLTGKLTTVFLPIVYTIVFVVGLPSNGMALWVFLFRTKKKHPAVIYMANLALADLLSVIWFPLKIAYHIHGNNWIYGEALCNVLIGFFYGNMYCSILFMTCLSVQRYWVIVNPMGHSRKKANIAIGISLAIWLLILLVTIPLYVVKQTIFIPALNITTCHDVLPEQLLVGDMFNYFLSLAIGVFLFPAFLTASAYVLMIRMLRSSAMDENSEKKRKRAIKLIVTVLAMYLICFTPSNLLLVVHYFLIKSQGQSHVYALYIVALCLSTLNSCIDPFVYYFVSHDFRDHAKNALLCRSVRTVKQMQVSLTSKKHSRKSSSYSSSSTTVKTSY
Summary of the method: (§1)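 Inhibition of agonist-evoked calcium signals was measured in human HT-29 colon cells cultured overnight in 1% FBS McCoy's medium. Test compounds preincubated 30 min at r.t.; activators at final concentrations as stated for each readout.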

[2] = system: Thrombin-stimulated Ca2+ response in HT-29 cells; assay: Ca FLIPR TETRA assay, ANTAGONIST mode, activator 1 U/mL Thrombin; conditions: Homo sapiens; HT-29 cells, activator 1 U/mL Thrombin
Summary of the method: as §1

[3] = system: UTP-stimulated Ca2+ response in HT-29 cells; assay: Ca FLIPR TETRA assay, ANTAGONIST mode, activator 0.6 μM UTP; conditions: Homo sapiens; HT-29 cells, activator 0.6 μM UTP
Summary of the method: as §1

[4] = molecular target: T1, PAR2 (HT-29 cells); assay: Ca FLIPR TETRA assay, ANTAGONIST mode, activator 8 μM SLIGKV; conditions: HT-29 cells, activator 8 μM SLIGKV
Summary of the method: as §1

[5] = Method A: maximal concentration of antagonist 0.1, 1 or 2 μM
[6] = maximal antagonist concentration per Method (A: 0.1, 1 or 2 μM; B: 50 μM)

| Compound | IC50 [1, 5] | IC50 [2] | IC50 [3] | IC50 [4, 5] | IC50 [1, 6] | IC50 [4, 6] |
| --- | --- | --- | --- | --- | --- | --- |
| CC(C)(C)c1cc(-c2ccc(Cl)c(F)c2)nc2cc(C(=O)N3CCN(C(=O)NS(=O)(=O)c4ccccc4)CC3(C)C)oc12 [Example I-507] | 0.5 nM | > 2000 nM | > 2000 nM | 0.6 nM |  |  |
| CC(C)(C)c1cc(C2CCC(F)(F)CC2)nc2cc(C(=O)N3CCNC(=O)C3(C)C)oc12 [Example I-216] |  | > 1000 nM | > 1000 nM |  | 240 nM | 68 nM |
| CO[C@H](C)C(=O)N1CCN(C(=O)c2cc3nc(-c4ccc(F)cc4)cc(C(C)C)c3o2)C(C)(C)C1 [Example I-63] |  | 18000 nM | 19000 nM |  | 110 nM | 62 nM |
| CCOC(=O)N1CCN(C(=O)c2cc3nc(-c4ccc(F)cc4)cc(C4(C)CC4)c3o2)C(C)(C)C1 [Example I-108] |  | > 50000 nM | > 50000 nM |  | 1.8 nM | 2.2 nM |
| CCC(C)(C)C(=O)N1CCN(C(=O)c2cc3nc(-c4ccc(F)cc4)cc(C4(C)CC4)c3o2)C(C)(C)C1 [Example I-52] |  | > 50000 nM | > 50000 nM |  | 6 nM | 4.2 nM |
| C[C@H]1CN(C(=O)c2cc3nc(-c4ccc(F)cc4)cc(C4(C)CC4)c3o2)CCN1C(=O)C1CC1 [Example I-116] |  | 13000 nM | 6900 nM |  | 990 nM | 350 nM |
| CC(C)(C)c1cc(-c2ccc(Cl)c(F)c2)nc2cc(C(=O)N3CCN(c4ccc(C(=O)O)cn4)CC3(C)C)oc12 [Example I-287] |  | 1800 nM | 1620 nM |  | 0.5 nM | 0.3 nM |
| Cn1cc(C(=O)O)c(C(=O)N2CCN(C(=O)c3cc4nc(C5CC6(CCC6)C5)cc(C(C)(C)C)c4o3)C(C)(C)C2)n1 [Example I-291] |  | > 2000 nM | > 2000 nM |  | 1.1 nM | 0.7 nM |
| Cc1cc(N2CCN(C(=O)c3cc4nc(-c5ccc(Cl)cc5)cc(C(C)(C)C)c4o3)C(C)(C)C2=O)[nH]n1 [Example I-285, 4-[7-tert-butyl-5-(4-chlorophenyl)furo[3,2-b]pyridine-2-carbonyl]-3,3-dimethyl-1-(3-methyl-1H-pyrazol-5-yl)piperazin-2-one] |  | > 2000 nM | > 2000 nM |  | 23.5 nM | 28 nM |
| CC(C)(C)c1cc(-c2ccc(Cl)c(F)c2)nc2cc(C(=O)N3CCN(c4cc(C(=O)O)ncn4)CC3(C)C)oc12 [Example I-490] | 3.9 nM | > 2000 nM | > 2000 nM | 3.1 nM |  |  |
| CC(C)(C)c1cc(-c2ccc(Cl)c(F)c2)nc2cc(C(=O)N3CCN(c4nccnc4C(=O)O)CC3(C)C)oc12 [Example I-470] | 6.2 nM | > 2000 nM | > 2000 nM | 5.7 nM |  |  |
| Cn1cc(N2CCN(C(=O)c3cc4nc(-c5ccc(Cl)c(F)c5)cc(C(C)(C)C)c4o3)C(C)(C)C2=O)nn1 [Example I-356] | 14.1 nM | > 2000 nM | > 2000 nM | 12 nM |  |  |
| CC(C)c1cc(-c2ccc(F)cc2)nc2cc(C(=O)N3CCN(C(=O)C4CCCO4)CC3(C)C)oc12 (centres unmarked) [Example I-10] |  | 15000 nM | 16000 nM |  | 27 nM | 23 nM |
| C[C@H]1CN(C(=O)c2cc3nc(-c4ccc(F)cc4)cc(C4(C)CC4)c3o2)CCN1C(=O)C1(O)CCOCC1 [Example I-121] |  | 5500 nM | 6300 nM |  | 1800 nM | 1100 nM |
| Cc1cc(C(=O)N2CCN(C(=O)c3cc4nc(-c5ccc(F)cc5)cc(C5(C)CC5)c4o3)C[C@@H]2C)n(C)n1 [Example I-123] |  | 4500 nM | 4100 nM |  | 930 nM | 340 nM |
| [2H]C([2H])([2H])N1CCN(C(=O)c2cc3nc(-c4ccc(F)c(Cl)c4)cc(C(C)(C)C)c3o2)C(C)(C)C1=O [Example I-239] |  | > 2000 nM | > 2000 nM |  | 5.4 nM | 6.1 nM |
| CC(C)(C)c1cc(-c2ccc(Cl)c(F)c2)nc2cc(C(=O)N3CCC(NC(=O)NS(C)(=O)=O)CC3(C)C)oc12 (centres unmarked) [Example I-541] | 1 nM | > 2000 nM | > 2000 nM | 1.5 nM |  |  |
| CC1(c2cc(-c3ccc(F)cc3)nc3cc(C(=O)N4CCN(C(=O)C5CC(O)(C(F)(F)F)C5)CC4(C)C)oc23)CC1 (centres unmarked) [Example I-58] |  | 19000 nM | 30000 nM |  | 0.64 nM | 0.31 nM |

| Compound | IC50 [1, 5] | IC50 [2] | IC50 [3] | IC50 [4, 5] | IC50 [1, 6] | IC50 [4, 6] |
| --- | --- | --- | --- | --- | --- | --- |
| CCS(=O)(=O)NCC(=O)N1CCN(C(=O)c2cc3nc(-c4ccc(Cl)cc4)cc(C(C)(C)C)c3o2)C(C)(C)C1 [Example I-467] | 7.7 nM | > 2000 nM | > 2000 nM | 4.3 nM |  |  |
| CC1(C)CCC(c2cc(C(C)(C)C)c3oc(C(=O)N4CCN(c5ccn[nH]5)C(=O)C4(C)C)cc3n2)CC1 [Example I-283, 4-[7-tert-butyl-5-(4,4-dimethylcyclohexyl)furo[3,2-b]pyridine-2-carbonyl]-3,3-dimethyl-1-(1H-pyrazol-5-yl)piperazin-2-one] |  | > 2000 nM | > 2000 nM |  | 61.5 nM | 18 nM |
| CC1(C)C(=O)NCCN1C(=O)c1cc2nc(-c3ccc(F)cc3)cc(C3CCCC3)c2o1 [Example I-203] |  | > 1000 nM | > 1000 nM |  | 10 nM | 5 nM |
| CC(C)c1cc(-c2ccc(F)cc2)nc2cc(C(=O)N3CCN(C(=O)[C@@H](C)O)C[C@@H]3C)oc12 [Example I-103] |  | 29000 nM | 24000 nM |  | 8500 nM | 7900 nM |
| Cc1cc(-c2cc(C(C)(C)C)c3oc(C(=O)N4CCN(C(=O)c5nnc[nH]5)CC4(C)C)cc3n2)ccc1F [Example I-162] |  | > 1000 nM | > 1000 nM |  | 15 nM | 10 nM |
| C[C@H]1CN(C(=O)c2cc3nc(-c4ccc(F)cc4)cc(C4(C)CC4)c3o2)CCN1C(=O)C1(C)CC1 [Example I-118] |  | 9800 nM | 6100 nM |  | 780 nM | 600 nM |
| CC(C)(C)c1cc(-c2ccc(Cl)cc2)nc2cc(C(=O)N3CCN(C(=O)[C@H]4CCS(=O)(=O)N4)CC3(C)C)oc12 [Example I-475] | 34 nM | > 2000 nM | > 2000 nM | 26 nM |  |  |
| CC1(C)CCC(c2cc(C(C)(C)C)c3oc(C(=O)N4CCN(C(=O)[C@H]5C[C@@](C)(O)C5)CC4(C)C)cc3n2)CC1 [Example I-228] |  | > 2000 nM | > 2000 nM |  | 1.4 nM | 0.9 nM |
| CC(C)(C)c1cc(-c2ccc(Cl)cc2)nc2cc(C(=O)N3CCN(c4ccncc4)CC3(C)C)oc12 [Example I-262] |  | > 2000 nM | > 2000 nM |  | 1900 nM | 770 nM |
| Cc1nccc(N2CCN(C(=O)c3cc4nc(-c5ccc(Cl)cc5)cc(C(C)(C)C)c4o3)C(C)(C)C2)n1 [Example I-389] | 23 nM | > 2000 nM | > 2000 nM | 22 nM |  |  |
| COC(=O)c1cccc(N2CCN(C(=O)c3cc4nc(-c5ccc(Cl)c(F)c5)cc(C(C)(C)C)c4o3)C(C)(C)C2)n1 [Example I-268] |  | > 2000 nM | > 2000 nM |  | 9.4 nM | 4.9 nM |
| Cc1cc(N2CCN(C(=O)c3cc4nc(-c5ccc(Cl)cc5)cc(C(C)(C)C)c4o3)C(C)(C)C2)ncc1C(=O)O [Example I-399] | 0.6 nM | > 1010 nM | 860 nM | 0.4 nM |  |  |
| Cc1ccc(N2CCN(C(=O)c3cc4nc(-c5ccc(Cl)c(F)c5)cc(C(C)(C)C)c4o3)C(C)(C)C2=O)nn1 [Example I-355] | 16 nM | > 2000 nM | > 2000 nM | 14 nM |  |  |
| CC1(C)CCC(c2cc(C(C)(C)C)c3oc(C(=O)N4CCN(C(=O)CC[C@H](N)C(=O)O)CC4(C)C)cc3n2)CC1 [Example I-377] | 470 nM | > 2000 nM | > 2000 nM | 400 nM |  |  |
| CC(C)(C)c1cc(-c2ccc(Cl)c(F)c2)nc2cc(C(=O)N3CCN(c4ccc(C(=O)O)cn4)C(=O)C3(C)C)oc12 [Example I-405] | 1.7 nM | 750 nM | 580 nM | 1.8 nM |  |  |
| CC(C)c1cc(-c2ccc(F)cc2)nc2cc(C(=O)N3CCN(C(=O)C4CCCCO4)CC3(C)C)oc12 (centres unmarked) [Example I-64] |  | 30000 nM | 21000 nM |  | 6 nM | 4.5 nM |
| Cc1ccc(N2CCN(C(=O)c3cc4nc(-c5ccc(Cl)cc5)cc(C(C)(C)C)c4o3)C(C)(C)C2)nc1-c1nnn[nH]1 [Example I-537] | 0.4 nM | > 2000 nM | > 2000 nM | 0.3 nM |  |  |
